Laboratory results taken from patent publication US7196110B2, “N-substituted tricyclic 3-aminopyrazoles as inhibitors for the treatment of cell proliferative disorders” (Janssen Phamaceutica N.V., priority 2002, dated 2007).
Read-outs that look alike come from different tables or passages of the source.

Target: T1, PDGF-receptor beta enzyme comprising the tyrosine kinase domain (Homo sapiens, UniProt P09619)
T1 construct: from amino acid 545 to 1106 of GenBank Access NO: AAA36427
Assay: Inhibition of PDGF-receptor kinase activity (cell-free, PLC1 peptide, 33P Flashplate)
Type: biochemical
Details: for inhibition at 10 µM: read-out: Percent Inhibition @ 10 uM
Method in brief: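 The IC50 is the inhibitor level halving kinase activity relative to inhibitor-free wells, measured as 33P captured on a streptavidin-bound biotin-PLC1 peptide. The reaction ran 60 min at 30 °C in pH 8 Tris buffer with 1 mM DTT, 5 μM ATP and the 545–1106 kinase-domain enzyme.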

[1] = PDGF-R kinase activity, compound at 10 uM
[2] = PDGF-R kinase activity, read-out: IC50

T1 sequence (P09619 545-1106): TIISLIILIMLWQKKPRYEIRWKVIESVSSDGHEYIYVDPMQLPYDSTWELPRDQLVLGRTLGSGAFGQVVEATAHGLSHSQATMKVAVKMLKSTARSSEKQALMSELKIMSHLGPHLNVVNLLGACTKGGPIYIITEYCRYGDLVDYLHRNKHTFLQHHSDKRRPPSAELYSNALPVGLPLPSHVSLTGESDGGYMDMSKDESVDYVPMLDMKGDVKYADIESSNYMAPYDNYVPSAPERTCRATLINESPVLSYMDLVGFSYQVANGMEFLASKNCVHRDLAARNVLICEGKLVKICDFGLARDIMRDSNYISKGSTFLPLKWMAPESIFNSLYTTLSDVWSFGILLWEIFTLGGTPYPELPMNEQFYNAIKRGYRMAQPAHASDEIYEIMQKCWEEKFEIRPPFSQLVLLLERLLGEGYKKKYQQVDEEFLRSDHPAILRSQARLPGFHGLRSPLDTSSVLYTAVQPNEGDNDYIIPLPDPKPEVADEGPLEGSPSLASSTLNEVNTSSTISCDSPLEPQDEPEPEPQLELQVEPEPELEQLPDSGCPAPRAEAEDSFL

Row | SMILES | inhibition at 10 µM [1] | IC50 [2] | IC50 (IC50 (μM), PDGF-R kinase activity) | inhibition at 10 µM
1 | COCCOC(=O)n1nc(Nc2cccc(F)c2)c2c1-c1cc(OC)c(OC)cc1C2 [Compound 438, 3-(3-Fluoro-phenylamino)-6,7-dimethoxy-4H-indeno[1,2-c]pyrazole-1-carboxylic acid 2-methoxy-ethyl ester] | 77.5% | 0.992 µM | – | –
2 | COC(=O)n1nc(Nc2cccc(F)c2)c2c1-c1cc(OC)c(OC)cc1C2 [Compound 439, 3-(3-Fluoro-phenylamino)-6,7-dimethoxy-4H-indeno[1,2-c]pyrazole-1-carboxylic acid methyl ester] | 69.5% | 0.62 µM | – | –
3 | OCCCOc1cccc2c1Cc1c-2n[nH]c1NCc1ccccc1F [Compound 444, 3-[3-(2-Fluoro-benzylamino)-2,4-dihydro-indeno[1,2-c]pyrazol-5-yloxy]-propan-1-ol] | 79.5% | 0.518 µM | – | –
4 | Cc1ccccc1CNc1[nH]nc2c1Cc1c(OCCCO)cccc1-2 [Compound 445, 3-[3-(2-Methyl-benzylamino)-2,4-dihydro-indeno[1,2-c]pyrazol-5-yloxy]-propan-1-ol] | 95% | 0.0253 µM | – | –
5 | CCOP(=O)(OCC)n1nc(Nc2cccc(F)c2)c2c1-c1cc(OC)c(OC)cc1C2 [Compound 446, [3-(3-Fluoro-phenylamino)-6,7-dimethoxy-4H-indeno[1,2-c]pyrazol-1-yl]-phosphonic acid diethyl ester] | – | – | 0.266 µM | 93.5%
6 | COc1cc2c(cc1OCC(O)CO)Cc1c-2n[nH]c1NCc1ccccc1Cl (stereo not drawn) [Compound 451, 3-[3-(2-Chloro-benzylamino)-7-methoxy-2,4-dihydro-indeno[1,2-c]pyrazol-6-yloxy]-propane-1,2-diol] | 99.5% | 0.002 µM | – | –
7 | COc1ccncc1Nc1[nH]nc2c1Cc1cc(OC)c(OC)cc1-2 [Compound 453, (6,7-Dimethoxy-2,4-dihydro-indeno[1,2-c]pyrazol-3-yl)-(4-methoxy-pyridin-3-yl)-amine] | 88% | 0.829 µM | – | –
8 | COc1cc2c(cc1OC)-c1n[nH]c(Nc3c(OC)ccnc3OC)c1C2 [Compound 454, (6,7-Dimethoxy-2,4-dihydro-indeno[1,2-c]pyrazol-3-yl)-(2,4-dimethoxy-pyridin-3-yl)-amine] | 99% | 0.258 µM | – | –
9 | COc1cc2c(cc1OC)-c1n[nH]c(NCc3cc(-c4ccccc4)on3)c1C2 [Compound 455, (6,7-Dimethoxy-2,4-dihydro-indeno[1,2-c]pyrazol-3-yl)-(5-phenyl-isoxazol-3-ylmethyl)-amine] | 95% | 0.153 µM | – | –
10 | COC(=O)CCCC(=O)n1nc(Nc2cccc(F)c2)c2c1-c1cc(OC)c(OC)cc1C2 [Compound 464, 5-[3-(3-Fluoro-phenylamino)-6,7-dimethoxy-4H-indeno[1,2-c]pyrazol-1-yl]-5-oxo-pentanoic acid methyl ester] | 92% | 0.245 µM | – | –
11 | COc1cc2c(cc1OC)-c1c(c(Nc3cccc(F)c3)nn1C(=O)OCCOCc1ccccc1)C2 [Compound 470, 3-(3-Fluoro-phenylamino)-6,7-dimethoxy-4H-indeno[1,2-c]pyrazole-1-carboxylic acid 2-benzyloxy-ethyl ester] | 96% | 0.197 µM | – | –
12 | COCn1nc(Nc2cccc(F)c2)c2c1-c1cc(OC)c(OC)cc1C2 [Compound 472, (6,7-Dimethoxy-1-methoxymethyl-1,4-dihydro-indeno[1,2-c]pyrazol-3-yl)-(3-fluoro-phenyl)-amine] | 35% | – | – | –
13 | COc1cc2c(cc1OC)-c1n[nH]c(Nc3c(F)cccc3F)c1C2 [Compound 476, (2,6-Difluoro-phenyl)-(6,7-dimethoxy-2,4-dihydro-indeno[1,2-c]pyrazol-3-yl)-amine] | 88.5% | 0.25 µM | – | –

Continued, in another order:

Row | inhibition at 10 µM [1] | IC50 [2] | SMILES | IC50 (IC50 (μM), PDGF-R kinase activity) | inhibition at 10 µM
14 | 89.5% | 0.0457 µM | OCCCOc1cccc2c1Cc1c-2n[nH]c1Nc1cccc(Cl)c1 [Compound 440, 3-[3-(3-Chloro-phenylamino)-2,4-dihydro-indeno[1,2-c]pyrazol-5-yloxy]-propan-1-ol] | – | –
15 | 96% | 0.206 µM | CCOc1cccc(Nc2[nH]nc3c2Cc2c(OCCCO)cccc2-3)c1 [Compound 441, 3-[3-(3-Ethoxy-phenylamino)-2,4-dihydro-indeno[1,2-c]pyrazol-5-yloxy]-propan-1-ol] | – | –
16 | 94.5% | 0.205 µM | OCCCOc1cccc2c1Cc1c-2n[nH]c1Nc1cccc(F)c1 [Compound 442, 3-[3-(3-Fluoro-phenylamino)-2,4-dihydro-indeno[1,2-c]pyrazol-5-yloxy]-propan-1-ol] | – | –
17 | 89.5% | 0.098 µM | OCCCOc1cccc2c1Cc1c-2n[nH]c1NCc1c(F)cccc1F [Compound 443, 3-[3-(2,6-Difluoro-benzylamino)-2,4-dihydro-indeno[1,2-c]pyrazol-5-yloxy]-propan-1-ol] | – | –
18 | 7% | – | COc1cc2c(cc1OC)-c1c(c(Nc3cccc(F)c3)nn1S(=O)(=O)N(C)C)C2 [Compound 447, 3-(3-Fluoro-phenylamino)-6,7-dimethoxy-4H-indeno[1,2-c]pyrazole-1-sulfonic acid dimethylamide] | – | –
19 | 100% | 0.000938 µM | COc1cc2c(cc1OCC(O)CO)Cc1c-2n[nH]c1NCc1c(Cl)cccc1Cl (stereo not drawn) [Compound 450, 3-[3-(2,6-Dichloro-benzylamino)-7-methoxy-2,4-dihydro-indeno[1,2-c]pyrazol-6-yloxy]-propane-1,2-diol] | – | –
20 | 70.5% | 7 µM | COc1ccc(C(=O)n2nc(Nc3cccc(F)c3)c3c2-c2cc(OC)c(OC)cc2C3)cc1 [Compound 458, [3-(3-Fluoro-phenylamino)-6,7-dimethoxy-4H-indeno[1,2-c]pyrazol-1-yl]-(4-methoxy-phenyl)-methanone] | – | –
21 | 99% | 0.00215 µM | CCOc1cc2c(cc1OCC(O)CN1CCCC1)-c1n[nH]c(Nc3cccc(OC)c3)c1C2 (stereo not drawn) [Compound 462, 1-[6-Ethoxy-3-(3-methoxy-phenylamino)-2,4-dihydro-indeno[1,2-c]pyrazol-7-yloxy]-3-pyrrolidin-1-yl-propan-2-ol] | – | –
22 | 98.5% | 0.00896 µM | COCC(=O)OCC(=O)n1nc(Nc2cccc(F)c2)c2c1-c1cc(OC)c(OC)cc1C2 [Compound 473, Methoxy-acetic acid 2-[3-(3-fluoro-phenylamino)-6,7-dimethoxy-4H-indeno[1,2-c]pyrazol-1-yl]-2-oxo-ethyl ester] | – | –
23 | 91.5% | 0.0634 µM | COc1cc2c(cc1OC)-c1c(c(Nc3cccc(F)c3)nn1C(=O)COC(=O)C(C)C)C2 [Compound 474, Isobutyric acid 2-[3-(3-fluoro-phenylamino)-6,7-dimethoxy-4H-indeno[1,2-c]pyrazol-1-yl]-2-oxo-ethyl ester] | – | –
24 | 65.5% | 5.03 µM | COCn1nc2c(c1Nc1cccc(F)c1)Cc1cc(OC)c(OC)cc1-2 [Compound 475, (6,7-Dimethoxy-2-methoxymethyl-2,4-dihydro-indeno[1,2-c]pyrazol-3-yl)-(3-fluoro-phenyl)-amine] | – | –
25 | 95% | 0.229 µM | COc1cc2c(cc1OC)-c1n[nH]c(Nc3c(F)cc(F)cc3F)c1C2 [Compound 477, (6,7-Dimethoxy-2,4-dihydro-indeno[1,2-c]pyrazol-3-yl)-(2,4,6-trifluoro-phenyl)-amine] | – | –
